Results published in patent publication US20250002492A1, “COMPOSITIONS OF FOLATE ABSORPTION INHIBITORS AND METHODS THEREOF” (THE TEXAS A&M UNIVERSITY SYSTEM, priority 2023, published 2025).

Target: T1, Folate Uptake Transporter (PCFT) in Caco2 cells (Homo sapiens, UniProt Q96NT5)
T1 construct: These cells express high levels of the PCFT/SLC46A1 receptor; host or cells: Caco-2
T1 sequence (Q96NT5 1-459): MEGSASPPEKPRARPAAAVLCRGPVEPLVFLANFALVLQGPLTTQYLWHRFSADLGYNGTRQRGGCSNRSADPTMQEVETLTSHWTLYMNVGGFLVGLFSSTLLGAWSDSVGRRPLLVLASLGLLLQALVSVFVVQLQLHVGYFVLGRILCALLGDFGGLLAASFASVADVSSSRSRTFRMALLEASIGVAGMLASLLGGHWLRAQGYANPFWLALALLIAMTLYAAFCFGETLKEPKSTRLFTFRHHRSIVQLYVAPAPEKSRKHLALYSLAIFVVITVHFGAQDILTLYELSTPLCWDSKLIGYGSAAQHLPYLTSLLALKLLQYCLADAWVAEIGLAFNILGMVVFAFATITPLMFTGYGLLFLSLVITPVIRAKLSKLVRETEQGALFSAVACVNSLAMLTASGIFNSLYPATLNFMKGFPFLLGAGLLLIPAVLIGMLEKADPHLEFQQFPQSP
Experiment: Folate uptake transporter substrate assessment in Caco2 cell line (compound uptake with and without pemetrexed)
Assay type: in vitro ADME
Description: Cell Plates were Prepared According to the Methods of Example 8 Using Caco-2 Cells from American Type Culture Collection at Passage 37.
The transport buffer (HBSS with 10 mM MES, pH 5.5) was prepared by weighing 1.952 g of MES and 0.35 g sodium hydrogen carbonate and adding into 900 mL of pure water followed by sonication to dissolve the content. Following the transfer of 100 mL of 10×HBSS into the solution. The solution was placed on a stirrer, the pH was slowly adjusted with hydrochloric acid to 5.5, and then the solution was filtered to get HBSS solution (with 10 mM MES, pH 5.5).
The test compounds and folic acid (1 μM) substrate solutions were prepared by diluting with pH 5.5 buffer. Next, the test compounds and folic acid (1 μM) substrate solution+positive control inhibitor (pemetrexed, 50 μM) were prepared. For the solution without inhibitor, DMSO was diluted with corresponding substrate solution to get the working incubation solution.
For the solution with inhibitor, the pre-incubation solution was prepared by adding the positive control inhibitor (pemetrexed, 50 μM) in pH 5.5 buffer. For the solution without inhibitor, DMSO was diluted with pH 5.5 buffer and used as the vehicle control.
When the 8-10 day Caco-2 cultured cells reached confluence and were differentiated, they were ready to be used for transport studies. The Caco-2 plate was removed from the incubator, and the medium was removed from the 24-well Plates. Next, cells were washed 3 times with 300 μL of pre-warmed pH 5.5 buffer. Then, 300 μL of pre-incubation solution was added into each well and the plate was placed at 37° C. for 30 minutes. The assay was performed in duplicate. After 30 minutes pre-incubation, the pre-incubation solution was aspirated, and 300 μL of pre-warmed working incubation solution was added to start the transporter assay. After 6 minutes incubation, cells were washed by quickly adding/aspirating 300 μL of ice-cold pH 5.5 buffer 4 times. The pH 5.5 buffer was removed and 300 μL of pure water was added into each well. Freeze-thaw in liquid nitrogen and 37° C. incubator was repeated for 3 times to lyse cells. After, centrifugation at 3,300 g was performed for 30 seconds. Next, 50 μL of supernatant was transferred to 200 μL methanol or acetonitrile containing internal standard and centrifuged at 3,300 g for 30 minutes. 200 μL aliquots of the supernatants were used for LC-MS/MS analysis. Standards were treated the same as samples.
A BCA Kit was used to determine the protein content for each well. Bovine serum albumin at 2, 1, 0.5, 0.25, 0.125, 0.0625, 0.0313, 0.0156, 0.00781 and 0.00391 mg/mL was prepared in Phosphate Buffer Saline (PBS, pH 7.4). 10 μL of supernatant was mixed from the previous step with the same volume of PBS. 20 μL of standard or test sample was added into 96-well clear plate and mixed with 200 μL working reagent. After 30 minutes incubation at 37° C., the absorbance at 562 nm was measured on the microplate reader.
Standard-curves: prepared 200 μM DMSO Folic acid solution, samples of 1000 nm, 300 nm, 100 nm, 30 nM, and 10 nM prepared using a PH 5.5 buffer, and a PH 5.5 buffer containing 50 μM of pemetrexed, respectively.
All calculations were carried out using Microsoft Excel. Peak areas were determined from extracted ion chromatograms. Uptake rate, in unit of pmol/mg protein/min, is calculated using the following equation: Uptake rate=Conc./(Protein×Time); Conc. is concentration of drug in cell lysate (nM), Protein is the protein concentration of cell lysate (mg/mL), and Time is the incubation time (minute). Uptake ratio is calculated using the following equation: Uptake ratio=Uptake rate without inhibitor/Uptake rate with inhibitor. Note: The compound was considered as a potential substrate of a particular transporter when the uptake ratio was greater than 2.

CC(=O)N1CCC(C(=O)N2CCN3C(=O)c4cc(-c5ccccc5)ccc4NC(=O)C3C2)CC1 (centres unmarked) [MPOL_B_1, 2-(1-acetylpiperidine-4-carbonyl)-8-phenyl-1,3,4,12a-tetrahydrobenzo[e]pyrazino[1,2-a][1,4]diazepine-6,12(2H,11H)-dione]
cell permeability (Caco-2): least permeable
Uptake Ratio(−Inhibitor/+Inhibitor) (human, Caco-2, 6 min, 1 μM, pH 5.5): 0.76
